Measured values reported in article PMC6328429, “Synthesis of a benzoxazinthione derivative of tanaproget and pharmacological evaluation for PET imaging of PR expression” (EJNMMI Radiopharmacy and Chemistry, 2019).
Values joined by “and” are separate entries in the source; they are usually repeats but may differ in a detail not shown here. Equal values may be shown once. “Also recorded” adds a separate entry of the source. Read-outs that look alike come from different tables or passages of the source.

Columns and labels:
[1] = Dynamic PET/CT imaging in C57BL/6 female mice; assay type: in vivo; conditions: PET images acquired over 50 min
Description: Mice were anaesthetised with 3–5% isoflurane at a flow rate of 1 L/min, and then reduced to 1.5–2% isoflurane for anaesthesia maintenance during imaging. [^18F]2 was injected via the tail vein at the commencement of a dynamic PET scan using a dedicated small animal PET/CT scanner (Sedecal SuperArgus2R, Sedecal, Spain). Images were acquired over a 50 min imaging sequence, followed by CT imaging acquired in 514 projections for anatomic coregistration. PET emission data were corrected for decay and dead time and reconstructed using 3D-OSEM. Data were analysed based on regions of interest (ROI) drawn within the tumours and tissue. Time-activity curves (TAC) were calculated as an average form the region of interest analysis of three mice (Additional file 1: Figure S34). Data was analysed using AMIDE software (Loening and Gambhir, [2003]) and VivoQuant (InVicro, MA, USA) and regions of interest (ROIs) were selected by hand, and the count densities were averaged for each frame to obtain a TAC for each ROI.

[2] = Stability of formulated radioligand; assay type: physicochemical; conditions: up to 4 h after formulation; 10% (v/v) EtOH/PBS
[3] = Ex vivo biodistribution in C57BL/6 female mice; conditions: 50 min p.i.
Description: Pubertal female C57BL/6 mice were injected intraperitoneally with 30 IU gonadotropins, 15 IU Follicle-stimulating hormone (FSH) and 15 IU luteinizing hormone (LH) followed by 5 IU […] (hCG) after 48 h (Sigma-Aldrich, Gillingham, UK). After the imaging studies, the ovaries were removed and snap-frozen in liquid nitrogen for later analysis of protein expression by western blot.
[^18F]2 (455 ± 62 kBq) was injected into the tail vail of female C57BL/6 mice. Whilst under anaesthesia the animals were sacrificed and tissues of interest such as, heart, lung, liver, spleen, kidneys, stomach, muscle, bone, ovary, small intestines and large intestines were collected in pre-weighed counting tubes. Radioactivity within tissue samples was counted in a gamma spectrometer (Automatic Gamma Counter, Wizard 3 Wallac), and then weighed to determine the mass of the tissue. CPM for each tissue sample was normalised to the total injected dose of radioactivity to the animal to give %ID (injected dose), and then normalised to the weight of the counted tissue to give the radioactivity uptake of the tissue as %ID/g. Tabulated values shown in Additional file 1: Table S2.

[4] = Distribution coefficient analysis (LogD7.4), n-octanol/PBS; assay type: physicochemical
Description: Radioligand [^18F]2 (0.03 MBq, 1 μL, in EtOH) was mixed with PBS (500 μL) and n-octanol (500 μL). The sample was vortexed (10 min) followed by centrifugation (1×g, 10 min). Three aliquots (100 μL) from each layer were taken and counts measured using a 2480 WIZARD2 Automatic Gamma Counter (PerkinElmer, UK). Experiment was repeated in triplicate in n = 3 determinations (supporting information, Additional file 1: Table S1). Distribution coefficient (LogD7.4) was calculated as the logarithm of the ratio between CPM of the octanol and buffer phase.

T47D cells = assay: Cell uptake study of radioligand in breast cancer cell lines; assay type: cell-based, human
Description: T47D, MCF-7 and MDA-MB-231 cells (1 × 10^5) were plated into 6-well plates and used for receptor binding assays at 60–80% confluence. Cell medium was removed and cells were washed with cold PBS buffer. [^18F]2 (37 kBq/mL) was added to individual wells and cells were incubated at 37 °C in a humidified atmosphere of 5% CO2 for 60 min. Cells were co-incubated with 0.01–1 μM of cold progesterone for the blocking study. Cells were then washed 3 times with ice-cold PBS and lysed with RIPA buffer. Radioactivity was determined using a gamma spectrometer (Automatic Gamma counter, Wizard 3 Wallac). Radioactivity was normalised to protein content determined using a BCA 96-well plate assay (Thermo Fisher Scientific Inc., USA) and expressed as a percentage of total radioactivity per mg of protein.

[5] = In vitro radioactive metabolite analysis in mouse liver microsomes; assay type: in vitro ADME; conditions: MLM, 60 min, radio-HPLC integration
Description: Radioligand [^18F]2 (3 MBq, ca. 80 μL), mouse liver microsomes (50 μL, 1 mg/mL), NADPH regeneration system A (50 μL), NADPH regeneration system B (10 μL), PBS 0.5 M pH 7.5 (200 μL) and water (ca. 200 μL) were added to a plastic 1.5 mL tube. The mixture was incubated at 37 °C for 60 min and transferred into a plastic centrifuge tube (10 mL). Proteins were precipitated with ice-cold MeOH (2 mL) and the mixture was centrifuged (12,000 g, 3 min) to pellet the precipitate. The supernatant was removed, evaporated to dryness and the residue was suspended in 37% MeCN + 0.1%TFA / 63% Water + 0.1%TFA for RP-HPLC using gradient 3 (supporting information, section 10.3). The experiment was performed in n = 3 determinations. Extraction efficiency of radioactivity from the protein pellet was calculated to be 93.5% ± 1.6 (Additional file 1: Table S3). HPLC data is shown in the supporting information (Additional file 1: Figure S35).

[6] = PR-induced (PR+, gonadotropin stimulated) mice, mean ± SEM

Q: With `CC1(C)OC(=S)Nc2ccc(-c3cccnc3[18F])cc21` [[^18F]2] as the molecule, how does the “Distribution of radioactivity in PET images” value [1] read?
A: The value was “Extensive skeletal uptake; also recorded: accumulation of radioactivity in the liver and small intestines, but also in the spine, joints and skull”.

Q: What about the Stability after formulation [2] of the same molecule?
A: The Stability after formulation was 99.7%.

Q: What about the “Bone uptake ratio, gonadotropin-stimulated vs control mice” value [3] of the same molecule?
A: Its value is 2 fold.

Q: What about the “Biodistribution, blood” value [3, 6] of the same molecule?
A: Its value is 1.30 ± 0.30 %ID/g.

Q: What about the “Biodistribution, bone” value [3, 6] of the same molecule?
A: The value was 31.21 ± 5.99 %ID/g.

Q: What about the “Biodistribution, brain” value [3, 6] of the same molecule?
A: Its value is 0.40 ± 0.09 %ID/g.

Q: And the “Biodistribution, heart” value [3, 6]?
A: Its value is 1.47 ± 0.31 %ID/g.

Q: What about the “Biodistribution, kidney” value [3, 6] of the same molecule?
A: Its value is 3.89 ± 1.26 %ID/g.

Q: What about the “Biodistribution, large intestine” value [3, 6] of the same molecule?
A: The value was 13.25 ± 1.70 %ID/g.

Q: What about the “Biodistribution, liver” value [3, 6] of the same molecule?
A: The value was 14.48 ± 4.91 %ID/g.

Q: What about the “Biodistribution, lungs” value [3, 6] of the same molecule?
A: Its value is 1.33 ± 0.28 %ID/g.

Q: What about the “Biodistribution, muscle” value [3, 6] of the same molecule?
A: Its value is 1.55 ± 0.44 %ID/g.

Q: And the “Biodistribution, small intestine” value [3, 6]?
A: Its value is 36.08 ± 1.21 %ID/g.

Q: And the “Biodistribution, spleen” value [3, 6]?
A: Its value is 0.15 ± 0.06 %ID/g.

Q: What about the “Biodistribution, stomach” value [3, 6] of the same molecule?
A: The value was 3.41 ± 0.26 %ID/g.

Q: What about the “Biodistribution, urine” value [3, 6] of the same molecule?
A: Its value is 12.93 ± 12.56 %ID/g.

Q: What about the “Biodistribution, blood” value ([3]; control (PR-) mice, mean ± SEM) of the same molecule?
A: Its value is 0.01 ± 0.000 %ID/g.

Q: What about the “Biodistribution, bone” value ([3]; control (PR-) mice, mean ± SEM) of the same molecule?
A: Its value is 15.37 ± 3.47 %ID/g.

Q: What about the “Biodistribution, brain” value ([3]; control (PR-) mice, mean ± SEM) of the same molecule?
A: Its value is 0.41 ± 0.09 %ID/g.

Q: What about the “Biodistribution, heart” value ([3]; control (PR-) mice, mean ± SEM) of the same molecule?
A: The value was 1.40 ± 0.33 %ID/g.

Q: And the “Biodistribution, kidney” value ([3]; control (PR-) mice, mean ± SEM)?
A: The value was 4.02 ± 1.18 %ID/g.

Q: And the “Biodistribution, large intestine” value ([3]; control (PR-) mice, mean ± SEM)?
A: The value was 1.30 ± 0.07 %ID/g.

Q: What about the “Biodistribution, liver” value ([3]; control (PR-) mice, mean ± SEM) of the same molecule?
A: Its value is 6.19 ± 1.74 %ID/g.

Q: And the “Biodistribution, lungs” value ([3]; control (PR-) mice, mean ± SEM)?
A: The value was 1.28 ± 0.35 %ID/g.

Q: What about the “Biodistribution, muscle” value ([3]; control (PR-) mice, mean ± SEM) of the same molecule?
A: The value was 0.91 ± 0.19 %ID/g.

Q: What about the “Biodistribution, ovary” value ([3]; control (PR-) mice, mean ± SEM) of the same molecule?
A: The value was 1.32 ± 0.22 %ID/g.

Q: And the “Biodistribution, small intestine” value ([3]; control (PR-) mice, mean ± SEM)?
A: Its value is 30.49 ± 3.05 %ID/g.

Q: And the “Biodistribution, spleen” value ([3]; control (PR-) mice, mean ± SEM)?
A: Its value is 0.99 ± 0.28 %ID/g.

Q: What about the “Biodistribution, stomach” value ([3]; control (PR-) mice, mean ± SEM) of the same molecule?
A: The value was 0.73 ± 0.17 %ID/g.

Q: And the “Biodistribution, urine” value ([3]; control (PR-) mice, mean ± SEM)?
A: Its value is 10.94 ± 8.40 %ID/g.

Q: What about the logD ([4]; pH 7.4, PBS (pH 7.4) / octan-1-ol, three repeats in triplicate, read-out: Distribution coefficient (LogD7.4), mean ± SD) of the same molecule?
A: Its logD is 1.69 ± 0.1.

Q: And the logD ([4]; pH 7.4, single measurements (Run 1-3, a-c), read-out: LogD7.5)?
A: The logD was 1.67.

Q: And the “Uptake of radioligand in cell lines” value (T47D cells; T47D (PR++) compared to MCF7 (PR+) and MDA-MB-231 (PR-), 60 min, 37 °C)?
A: The value was “significant accumulation in T47D cells”.

Q: And the “Uptake in T47D cells on co-incubation with progesterone (blocking)” value (T47D cells; T47D cells, progesterone 0.01–0.1 μM)?
A: Its value is “decreased in a dose-dependent manner”.

Q: And the “[^18F]2 parent (Rt = ca 12:21 min:sec), single run” value ([5]; individual runs / representative chromatogram)?
A: The value was 33.3% and 36.3% and 36.6%.

Q: And the “[^18F]2 parent (Rt = ca 12:21 min:sec), mean ± SD” value ([5]; n = 3)?
A: Its value is 35.4 ± 1.8%.
